Assay results: patent publication EP0643699B1, “6-(2-HYDROXYETHYLAMINOALKYL)-5,11-DIOXO-5,6-DIHYDRO-11H- INDENO[1,2-C]ISOQUINOLINES AND THEIR USE AS ANTINEOPLASTIC AGENTS” (priority 1991, dated 1993)
Marks after values point to notes of the source that are not given here.

Key:
L1210/MX = experiment: Cytotoxicity: incorporation of [14C]amino-acid mixture, variant resistant to mitoxantron; format: cell-based; settings: Mus musculus; Tumor L1210/MX; Precursor [U-14C]Amino-acid mixture
Excerpt: (§1) The antineoplastic activity of the compounds of the invention has been investigated testing the compounds of the chemical group "in vivo" against experimental rodent tumors such as the solid form of Ehrlich tumour (STE, originally mammary adenocarcinoma), tumor HK (also transplantable originally mammary adenocarcinoma), Krebs' ascites tumour (Kr2), S37 ascites sarcoma, Nemeth-Keller lymphoma (NK), all maintained in mice H, Gardner lymphosarcoma (LsG, maintained in mice C3H), P388 and/or L1210 leukemia (maintained in DBA2 mice), B16 metastasizing melanocarcinoma (maintained in C57B1/6 mice) and Yoshida ascites reticulosarcoma (Y, maintained in Wistar rats) in experiments according to Jelinek, V. [Neoplasma 12, 469 (1965); ibid 7, 146 (1960)] and in "in vitro" experiments using radioactive precursors of nucleic acids and proteins according to Miko, M. et al. [Cancer Res 39, 4242 (1979); Neoplasma 26, 449 (1979); ibid 16, 161 (1969)] with minor modifications [Mattern, J.: Studies on the Drug Sensitivity of Short Term Cultured Tumour Cell Suspensions. In "Human Tumours in Short Term Culture" (Dendy, P.P. ed.), p.301, Academic Press 1976]. The Cox's proportional-hazards model was used for survival evaluation and optimal dose calculation according to Carter, V.H. et al. [cf Cancer Res. 42, 2963 (1982)]. […]

Ehrlich tumour = experiment: Antitumour activity against solid form of Ehrlich tumour in mice (tumour weight, survival); format: in vivo, mice H; settings: the fifth day after tumour transplantation; for Tumour weight (T/C, %): weighed on the fourteenth day
Excerpt: (§2) The antineoplastic activity of the compounds of the invention has been investigated testing the compounds of the chemical group "in vivo" against experimental rodent tumors such as the solid form of Ehrlich tumour (STE, originally mammary adenocarcinoma), tumor HK (also transplantable originally mammary adenocarcinoma), Krebs' ascites tumour (Kr2), S37 ascites sarcoma, Nemeth-Keller lymphoma (NK), all maintained in mice H, Gardner lymphosarcoma (LsG, maintained in mice C3H), P388 and/or L1210 leukemia (maintained in DBA2 mice), B16 metastasizing melanocarcinoma (maintained in C57B1/6 mice) and Yoshida ascites reticulosarcoma (Y, maintained in Wistar rats) in experiments according to Jelinek, V. [Neoplasma 12, 469 (1965); ibid 7, 146 (1960)] and in "in vitro" experiments using radioactive precursors of nucleic acids and proteins according to Miko, M. et al. [Cancer Res 39, 4242 (1979); Neoplasma 26, 449 (1979); ibid 16, 161 (1969)] with minor modifications [Mattern, J.: Studies on the Drug Sensitivity of Short Term Cultured Tumour Cell Suspensions. In "Human Tumours in Short Term Culture" (Dendy, P.P. ed.), p.301, Academic Press 1976]. The Cox's proportional-hazards model was used for survival evaluation and optimal dose calculation according to Carter, V.H. et al. [cf Cancer Res. 42, 2963 (1982)].
Sixty female mice H weighing approximately 20 g were divided into three groups: one control group and two experimental groups of 20 animal each. A lethal dose of the 40 Ehrlich tumour homogenate was implanted subcutaneously to all the animals. The animals of test groups were treated using the compounds suspended in water. […] On the fourteenth day after the tumour transplantation, half of the animals in each group were killed by ether anaesthesia, tumours were removed and weighed. The remaining animals were left to monitor the time of death and survival time was followed. […] It was also observed that the treated animals survived longer than untreated control animals.

Yoshida reticulosarcoma = experiment: Survival of rats bearing Yoshida ascites reticulosarcoma; format: in vivo, Wistar rats; settings: T/C
Excerpt: as §2
Seventy infantile Vistar female rats weighing 63.0-64.8 g were divided into seven groups: one control group and six experimental groups of 10 animal each. A lethal dose of the Yoshida reticulosarcoma ascitic fluid was implanted intraperitoneally to all the animals. The animals of test groups were treated using the compound suspended in water. The suspension contained the substance in such a concentration that dose 0.6, 0.4 and/or 0.2 ml of the suspension was equal to dose 200, 100 and/or 50 mg/kg p.o., or 40, 20 and/or 10 mg/kg s.c., respectively. Doses of the drug were administered to the experimental animals once a day, for five consecutive days, starting on the first day after tumour transplantation. In all animals survival was followed. It was observed that the treated animals survived longer than untreated control animals. […] The results of the experiment are summarized in the following table and shown in the graph on the Fig. 1.

L1210 leukemia cells = experiment: Cytotoxicity: incorporation of [14C]amino-acid mixture into trichloroacetic acid-insoluble fraction of cells; format: cell-based, DBA2 mice; settings: Mus musculus; Tumor L1210; Precursor [U-14C]Amino-acid mixture
Excerpt: as §1

Sa37 sarcoma = experiment: Antitumour activity in S37 ascites sarcoma bearing mice (tumour weight, total ascitocrit, survival); format: in vivo, mice H
Excerpt: as §2
Eighty female mice H weighing approximately 20 g were divided into four groups: one control group and three experimental groups of 20 animal each. A lethal dose of the Sa37 sarcoma ascitic fluid was implanted intraperitoneally to all the animals. The animals of test groups were treated using the compound suspended in water. The suspension contained the substance in such a concentration that dose 0.6, 0.4 and/or 0.2ml of the suspension p.o. was equal to dose 240, 160 and/or 80 mg/kg p.o., respectively. The drug was administered to the experimental animals once, a day after tumour transplantation. On the tenth day after the tumour transplantation, half of the animals in each group were killed by ether anaesthesia, ascites were emptied after laparotomia and the tumour weight was assessed in all animals from the weight difference before and after laparotomia and ascites removing. In ascites fluid the volume of tumour cell fraction was determined. The remaining animals were left to monitor the time of death and survival time was followed. […] It was also observed that the treated animals survived longer than untreated control animals. […] The results of the experiment are summarized in the following table: Antitumour activity of 6-[2-(2-hydroxyethyl)aminoethyl]5,11-dioxo-5,6-dihydro-11H-indeno[1,2-c]isoquinoline (the substance I, X=2) in S37 sarcoma bearing mice.
In an analogous experiment carried out on the animals with implanted Sa37 sarcoma the substance I (X=2) was administered in seven daily doses, and the substance I (X=3) in four days. The results of the experiment are summarized in the following table: Antitumour activity of 6-[2-(2-hydroxyethyl)aminoethyl]5,11-dioxo-5,6-dihydro-11H-indeno[1,2-c]isoquinoline (the substance I, X=2) and 6-[3-(2-hydroxyethyl)aminopropyl]5,11-dioxo-5,6-dihydro-11H-indeno[1,2-c]isoquinoline (the substance I, X=3) in S37 bearing mice.
In an experiment carried out on the animals with implanted Sa37 sarcoma the substance I (X=0) was administered in eight daily doses (analogously as in example 6).

[1] = 10 mg/kg p.o., seven daily doses
[2] = 20 mg/kg p.o., seven daily doses
[3] = 30 mg/kg p.o., seven daily doses
[4] = 80 mg/kg p.o. once, a day after tumour transplantation, assessed on the tenth day
[5] = 160 mg/kg p.o. once, a day after tumour transplantation, assessed on the tenth day
[6] = 240 mg/kg p.o. once, a day after tumour transplantation, assessed on the tenth day

O=C1c2ccccc2-c2c1c1ccccc1c(=O)n2CCNCCO [I (X=2), 6-[2-(2-hydroxyethyl)aminoethyl]-5,11-dioxo-5,6-dihydro-11H-indeno[1,2-c]isoquinoline]
IC50 (L1210/MX): 119 µM
Survival time (T/C, %) (Ehrlich tumour; 200 mg/kg p.o. once): 111%
Tumour weight (T/C, %) (Ehrlich tumour; 200 mg/kg p.o. once): 79^a) %
Survival time (T/C, %) (Ehrlich tumour; 400 mg/kg p.o. once): 152^a) %
Tumour weight (T/C, %) (Ehrlich tumour; 400 mg/kg p.o. once): 31^b) %
Period of survival (% of control) (Yoshida reticulosarcoma; p.o. 50 mg/kg once a day for five consecutive days): 132%
Period of survival (% of control) (Yoshida reticulosarcoma; p.o. 100 mg/kg once a day for five consecutive days): 230^b,^e) %
Period of survival (% of control) (Yoshida reticulosarcoma; p.o. 200 mg/kg once a day for five consecutive days): 219^b,^d) %
Period of survival (% of control) (Yoshida reticulosarcoma; s.c. 10 mg/kg once a day for five consecutive days): 203 ^b) %
Period of survival (% of control) (Yoshida reticulosarcoma; s.c. 20 mg/kg once a day for five consecutive days): 139^a) %
Period of survival (% of control) (Yoshida reticulosarcoma; s.c. 40 mg/kg once a day for five consecutive days): 86%
IC50 (L1210 leukemia cells): 78 µM
Survival time (T/C, %) (Sa37 sarcoma; [1]): 129%
Total ascitocrit (T/C, %) (Sa37 sarcoma; [1]): 73^b) %
Tumour weight (T/C, %) (Sa37 sarcoma; [1]): 66^b) %
Survival time (T/C, %) (Sa37 sarcoma; [2]): 129^a) %
Total ascitocrit (T/C, %) (Sa37 sarcoma; [2]): 73^a) %
Tumour weight (T/C, %) (Sa37 sarcoma; [2]): 64^b) %
Survival time (T/C, %) (Sa37 sarcoma; [3]): 86%
Total ascitocrit (T/C, %) (Sa37 sarcoma; [3]): 40^b) %
Tumour weight (T/C, %) (Sa37 sarcoma; [3]): 32^b) %
Survival time (T/C, %) (Sa37 sarcoma; 80 mg/kg p.o. once, a day after tumour transplantation): 107%
Total ascitocrit (T/C, %) (Sa37 sarcoma; [4]): 64^c) %
Tumour weight (T/C, %) (Sa37 sarcoma; [4]): 61^c) %
Survival time (T/C, %) (Sa37 sarcoma; 160 mg/kg p.o. once, a day after tumour transplantation): 111%
Total ascitocrit (T/C, %) (Sa37 sarcoma; [5]): 65^c) %
Tumour weight (T/C, %) (Sa37 sarcoma; [5]): 59^c) %
Survival time (T/C, %) (Sa37 sarcoma; 240 mg/kg p.o. once, a day after tumour transplantation): 119^b) %
Total ascitocrit (T/C, %) (Sa37 sarcoma; [6]): 47^c) %
Tumour weight (T/C, %) (Sa37 sarcoma; [6]): 42^c) %
